Row | SMILES | melting point
1 | COc1ccc(-c2cnc(N3CCc4c([nH]c5ccccc45)C3c3ccc4c(c3)OCO4)nc2)cc1OC (stereo unspecified) | 173 to 175 °C
2 | CC1(C)OC(=O)Nc2ccc(OCCCCS(=O)c3ccc(Cl)c(Cl)c3)cc21 (stereo unspecified) | 138 to 139 °C
3 | CCCCCCCCCCCCCCCC(CC)OCC(=O)c1ccccc1 (stereo unspecified) | 50 to 52 °C
4 | CC(C)c1nc2cc(COc3ccc(CCCn4ccnc4)cc3)ccc2o1 | 76 to 77 °C
5 | CC(N/C(C#N)=C(\N)C#N)c1ccc(Cl)cc1 (stereo unspecified) | 145 to 146 °C
6 | CC(=O)n1c(=O)oc2c(Cl)c(Cl)c(Cl)cc21 | 171 to 172 °C
7 | CS(=O)(=O)Nc1ccc(C(O)CNC2CCN(c3ccc(CC4SC(=O)NC4=O)cc3)CC2)cn1 (stereo unspecified) | 57 to 59 °C
8 | CCCCCCCCCCCC(=O)CC(=O)OC | 29 °C
9 | Cc1nn(C)c2c1N=C(c1ccc(-n3c(C)nc4cnccc43)cc1)C(C)C(=O)N2C (stereo unspecified) | 222 to 225 °C
10 | NC(C(=O)OC1CCCCC1)C(=O)OC1CCCCC1 | 46 to 47 °C
11 | CC(=O)C1CCC2C3CCC4CC(C)(O)CCC4(C)C3CCC12C (stereo unspecified) | 103 °C
12 | CCOC(=O)CNC(=O)c1nnc2ccc(Cl)nn12 | 133 to 134 °C
13 | CN(C)c1cc2nc(C(C)(C)C)sc2cc1[N+](=O)[O-] | 65 to 68 °C
14 | CN(C)Cc1ccc2c(c1)nnn2Cc1c(Cl)c(Cl)cc2[nH]c(=O)c(=O)[nH]c12 | 282 °C
15 | Clc1cc(COCc2cc(Cl)nc(Cl)c2)cc(Cl)n1 | 69.1 °C
16 | Cc1c(C)c([N+](=O)[O-])c(C)c2c1OC(C)(C)C2c1ccc(C(C)C)cc1 (stereo unspecified) | 109 to 110 °C
17 | CC(=O)NCC1CC(c2ccc(C3=CCN(C(=O)OC(C)(C)C)CC3)cc2)=NO1 (stereo unspecified) | 117 to 120 °C
18 | CCOC(=O)CCCCNc1ccc2c(c1)CCC2 | 61 to 63 °C
19 | Cc1cc(NS(=O)(=O)c2n[nH]c(NC=O)n2)ccc1Br | 282 to 284 °C
20 | CS(=O)(=O)Nc1ccc([C@@H]2CCC(=O)O2)cc1 | 101 to 102 °C
21 | O=C1OC[C@@H](CO)N1c1nc(-c2ccc(Br)cc2)cs1 | 189 to 192 °C
22 | COC(=O)c1cc(O)n[nH]1 | 229 to 231 °C
23 | CC(C)OC1CCCC(C2NC(=O)C2C(C)O[Si](C)(C)C(C)(C)C)C1O (stereo unspecified) | 121 to 123 °C

Row | SMILES | melting point
24 | CS(=O)(=O)NCC(=O)CCN1CCC(C2c3ncc(Br)cc3CCc3cc(Cl)cc(Cl)c32)CC1 (single isomer, unassigned; (+)) | 110 to 113 °C
25 | Cc1ccc(S(=O)(=O)NCCc2ccc(C(=O)CBr)cc2)cc1 | 133 to 136 °C
26 | CC(C)(C)N(CC(=O)O)C(=O)C(NC(=O)c1ccccc1)SC(=O)c1ccccc1 (stereo unspecified) | 157 to 160 °C
27 | CC1(CCC#N)CCC2OCCOC2CC1=O (stereo unspecified) | 58 to 60 °C
28 | CCn1c(C)c(C(=O)c2ccc(N)cc2C(=O)O)c2ccccc21 | 187 to 189 °C
29 | CO[C@@H]1[C@@H](OC)[C@H](C)O[C@@H](ONC(=O)c2ccc(-c3cn(-c4ccc(OC(F)(F)F)cc4)cn3)cc2)[C@@H]1OC | 185 °C
30 | CON(C)C(=O)c1ccoc1 | 39 to 42 °C
31 | CCCCCC1CCC(C2CCC(CC(O)CC)CC2)CC1 (stereo unspecified) | 131 °C
32 | CS(=O)(=O)c1ccc(/C(=C(/CO)CCO)c2ccc(Cl)cc2)cc1 | 159 to 160 °C
33 | CC(C)CCCC(C)C1CCC2C3C(=O)C=C4CC(O)CCC4(C)C3CCC12C (stereo unspecified) | 169 to 170 °C
34 | COc1ccc(OP(Oc2ccc(OC)cc2C(C)(C)C)Oc2ccc(OC)cc2C(C)(C)C)c(C(C)(C)C)c1 | 82 to 86 °C
35 | c1cc(CC[C@H]2CNCCN2)ccn1 | 113 to 116 °C
36 | CC(C)N1CC2(COc3ccc(N)cc3OC2)OC1=O (stereo unspecified) | 157 to 159 °C
37 | Cc1c(C(=O)C2C(=O)CCCC2=O)ccc(S(C)(=O)=O)c1S(C)(=O)=O | 301 to 302 °C
38 | O=C1NC(=O)C(=Cc2ccc(OC3CCN(C(=O)OCC4c5ccccc5-c5ccccc54)CC3)cc2)S1 | 185 °C
39 | CN=C(NS(=O)(=O)c1ccc(C)cc1)N1CCc2nc(N)sc2C1 | 206 to 208 °C
40 | Nc1nc(N)c(Br)c(OCCOCP(=O)(O)O)n1 | 218 °C
41 | C=CCN1Cc2cncn2C(c2ccc(C#N)cc2)C1=O (stereo unspecified) | 107 to 109 °C
42 | COc1c(C)c(C)c2c(c1C)C(C(=O)O)C(C)(C)O2 (stereo unspecified) | 185 to 187 °C
43 | CN(c1cccc2cc(C3=NCC(C)(CCN4CCOCC4)S3)[nH]c12)S(=O)(=O)c1cccs1 (stereo unspecified) | 154 to 155 °C
44 | CC(C)(CCP(=O)(O)O)c1ccc(O)cc1 | 192 to 195 °C
45 | COc1ccc(N2C(=O)C(N=[N+]=[N-])C2c2ccc(C(=O)O)cc2)cc1 (stereo unspecified) | 190 °C

Second part, the compound after the results:

Row | melting point | SMILES
46 | 181 to 182 °C | COc1cc2cc3c(ccc4ccccc43)nc2cc1OC
47 | 204 to 206 °C | Cn1c(C(=O)O)c(Oc2ccc(Cl)cc2N)c2ccccc21
48 | 155 to 158 °C | CS(=O)(=O)Oc1ccc(-c2c3ccccc3c(Cl)c3sc4ccccc4c23)cc1
49 | 325 °C | Cc1ccc(C2CN(c3cc4c(cc3F)ncc3c4c(=O)c(C(=O)O)cn3C)CCN2)cc1C (stereo unspecified)
50 | 160 to 164 °C | CCOC(=O)c1cc2cc(Cl)c(F)cc2[nH]1
51 | 168 to 170 °C | CC(C)(C)NS(=O)(=O)c1c(Cl)cccc1-c1ccccc1
52 | 125 to 126 °C | CC(=O)c1ccc(Nc2cnc3c(NCc4ccccc4)nc(NCCO)nc3c2)cc1
53 | 62 to 64 °C | C=C(C)c1ccc2c(c1)Cc1ccccc1O2
54 | 142 to 148 °C | CC1(C=C(F)F)CN(C(=O)Nc2ccc(OC(F)(F)F)cc2)N=C1c1ccc(Cl)cc1 (stereo unspecified)
55 | 158 to 160 °C | CCNC(=O)c1sc(-n2ccc(OCc3ccccc3)cc2=O)cc1C
56 | > 300 °C | CN(C)c1ccc(-c2n[nH]c3c2c(=O)n(-c2ccccc2)c2ncccc32)cc1
57 | 90 °C | Clc1ccccc1C(c1ccc(-c2ccccc2)cc1)n1ccnc1 (stereo unspecified)
58 | 132 to 133 °C | O=C(O)C(=O)c1ccc(OC/C=C/c2ccc(F)cc2)cc1
59 | 136 to 137 °C | COc1ccc(CSc2nnc(-c3ccc4c(c3)CCO4)o2)cc1Cl
60 | 155 °C | CN1C(=O)C(Br)=C(c2cn(C(=O)OC(C)(C)C)c3ccc(OCc4ccccc4)cc23)C1=O
61 | 54 to 56 °C | N=C(N)c1ccc2c(c1)C(CCNC(=O)c1ccc(-c3ccccn3)s1)CO2 (stereo unspecified)
62 | 189 to 190 °C | CN(CCOc1ccc(C=C2SC(=O)NC2=O)cc1)c1ncccn1
63 | 47 to 49 °C | Fc1ccc2c(c1)C(=C1SCCCS1)CCO2
64 | 147 to 148 °C | CCOC(=O)c1cc(-n2c(=O)ccn(C)c2=O)ccc1Cl

Row | melting point | SMILES
65 | 124 to 126 °C | CC(C)c1cccc(C(C)C)c1NC(=O)CC(=O)c1ccccc1
66 | 188 to 189 °C | COc1ccc2nc(-c3cccc(C)c3)c(-c3ccnc(NC4CCCCC4)c3)n2n1
67 | 170 °C | O=C(c1ccc2ncccc2c1)c1ccc2nc(Cl)nc(-c3cccc(Cl)c3)c2c1
68 | 210 to 212 °C | NC1CCC(C(=O)Nc2cccc(-c3cccc4c3/C(=C/c3ccc[nH]3)C(=O)N4)c2)CC1 (stereo unspecified)
69 | 42 to 43 °C | O=C(c1ccc(F)cc1)c1ccc(OC(F)(F)F)cc1
70 | 138 to 140 °C | C#CCNc1nc2ccc(OC(F)(F)F)cc2s1
71 | 115 to 116 °C | CCOC(=O)N1CCN(c2c(-c3ccccc3)sc3ccccc23)CC1
72 | 80 to 82 °C | COC(=O)c1ccccc1NC(=O)Cc1ccccc1C
73 | 123 to 125 °C | CC(=O)N(O)C(C)c1csc2ccccc12 (stereo unspecified)
74 | 115 °C | O=C(O)C(c1ccc2c(c1)OCO2)n1nc(-c2ccccn2)ccc1=O (stereo unspecified)
75 | 133 to 135 °C | COc1ccc2c(c1)C(CCNC(C)=O)=C(Cc1ccccc1)C2
76 | 108 to 109 °C | COC(=O)c1cncn1C1c2ccccc2CSC1(C)C (stereo unspecified)
77 | 97 to 99 °C | CC(C)c1c(CO)c(-c2ccc(F)cc2)c2n1CCCC2
78 | 114 to 117 °C | CC(=O)NNc1ccc(N(Cc2ccccc2)C(=S)Nc2ccccc2)cc1
79 | 146 to 148 °C | CN(CC(N)=O)S(=O)(=O)Cc1cccc(C(F)(F)F)c1
80 | 203 to 205 °C | CCOC(=O)c1cn(-c2nc(NC(C)(C)C)c(F)cc2F)c2c(Cl)c(F)c(F)cc2c1=O
81 | 132 to 133 °C | O=C(O)COc1nn(Cc2ccccc2)cc1-c1ccccc1
82 | 163 to 165 °C | CC(=O)SCC(Cc1ccccc1)C(=O)Nc1ccc(Cl)c(C(=O)O)c1 (stereo unspecified)
83 | 94 to 97 °C | CCOC(=O)C1(c2ccc(OCc3ccccc3)cc2)CC2=C(C1)C(=O)C(OC)=C(OC)C2=O

Row | melting point | SMILES
84 | 163 to 165 °C | Fc1ccc(CN2CCC(Nc3ccc(C(F)(F)F)nn3)CC2)cc1
85 | 180 to 183 °C | O=Cc1c2ccccc2c(Cl)c2cccc(Cl)c12
86 | 170 to 172 °C | COc1ccc(Cn2c(=O)[nH]c(=O)c3c2nc(C(C)(C)C)n3Cc2ccccc2)cc1
87 | 98 to 99 °C | O=C(Nc1ccccc1)OCCc1ccc2c(c1)C(=O)c1ccccc1CO2
88 | 86 to 88 °C | Fc1cc(F)c(-c2ccccc2)c(F)c1F
89 | 160 to 162 °C | Nc1cccc(S(=O)(=O)NC(=O)c2ccccc2)c1
90 | 139 to 142 °C | O=C(OC1CCCCC1)C1=C(c2ccccc2)C(c2ccccc2)OC1=O (stereo unspecified)
91 | 126 to 128 °C | NS(=O)(=O)c1ccc(-n2nc(C(F)(F)F)cc2-c2ccc(Cl)cc2)cc1
92 | 186 to 188 °C | CCOC(=O)CNc1nc2cccccc-2c1C#N
93 | 251 to 253 °C | O=C(O)c1ccc(OCc2ccccc2)c(C23CC4CC(CC(C4)C2)C3)c1
94 | 174 to 176 °C | Cc1ccccc1NC(=O)c1cc(Br)c(OCc2ccccc2)cc1OCc1ccccc1
95 | 93 to 95 °C | COC(=O)c1ccccc1COc1cccc2oc(C)cc12
96 | 264 °C | Cn1cc(-c2cc(-c3cnc4[nH]ccc4c3)ccn2)n(-c2ccccc2)c1=O
97 | 154 °C | O=C(c1ccc(Cl)cc1)c1cccc(O)c1
98 | 138 to 141 °C | O=S(=O)(NCc1ccncc1)c1ccc(-c2ccccc2Cl)cc1
99 | 40 to 41 °C | N#CC(NCCc1cccs1)c1ccccc1Cl (stereo unspecified)
100 | 156 to 157 °C | CCOc1cccc(CC(=O)O)c1OCCCc1cn(-c2ccc(C(F)(F)F)cn2)nc1C1CCCCC1
101 | 176 to 177 °C | O=C(NOCc1ccccc1)c1cc(F)c(Cl)nc1Cl
